Data on five compounds can be found in patent publication US8993603B2, “Pharmaceutical composition and method using antifungal agent in combination” (Toyama Chemical Co., Ltd., priority 2005, dated 2015).

In assay [1] the test system is Aspergillus fumigatus TIMM0063. In words: Mouse systemic infection model using Aspergillus fumigatus. It counts as in vivo. The conditions noted are these: ICR mice, 15 days after infection, test compound 0.1 mg/kg s.c., once a day, 7 times. The protocol: In vivo activity was evaluated employing a mouse systemic infection model using Aspergillus fumigatus.
As for the inoculum, mice (four-week old (at infection) male ICR mice, 10 mice per group) were intraperitoneally administered with cyclophosphamide 4 days prior to infection (200 mg/kg) and the day after infection (100 mg/kg). A conidium suspension of Aspergillus fumigatus TIMM0063 was diluted with sterile physiological saline solution containing 0.05% Tween 80 (manufactured by Difco Laboratories) to prepare an inoculum. The mice were intravenously inoculated in their tails with 0.2 mL of the inoculum to induce infection (approximately 4×10^4 CFU/mouse).
(§1) The test compound was dissolved in a small amount of 0.1 mol/L hydrochloric acid, and the resultant solution was diluted with sterile physiological saline solution.
Voriconazole was dissolved in 50 mg/mL aqueous sulfobutyl ether β-cyclodextrin sodium (SIDIX) solution.
Flucytosine was suspended in 0.5% methyl cellulose solution.
The test compound (0.1 mg/kg) and voriconazole (5 mg/kg) were subcutaneously administered and flucytosine (50 mg/kg) was orally administered 2 hours after infection and then once a day for 6 days for a total of 7 times. The test was carried out for the case where each of the agents was administered singly and in combination by administering each of the agents immediately after the test compound had been administered. Efficacy in the susceptibility test was evaluated by the survival rate 15 days after infection.

The subject of assay [2] is Cryptococcus neoformans ATCC90112. In words: Mouse systemic infection model using Cryptococcus neoformans. It counts as in vivo. Conditions: ICR mice, 22 days after infection, test compound 0.125 mg/kg s.c., once a day, 7 times. The protocol:
In vivo activity was evaluated employing a mouse systemic infection model using Cryptococcus neoformans.
Mice (four-week old (at infection) male ICR mice, 10 mice per group) were intraperitoneally administered with cyclophosphamide 4 days prior to infection (200 mg/kg) and the day after infection (100 mg/kg). An inoculum was prepared by suspending in sterile physiological saline solution Cryptococcus neoformans ATCC90112 on a SDA flat plate that had been cultured for one night at 35° C., counting the number of cells using a biological microscope, and then diluting with sterile physiological saline solution. The mice were intravenously inoculated in their tails with 0.2 mL of the inoculum to induce infection (approximately 8×10^4 CFU/mouse).
as §1
Fluconazole was prepared using sterile physiological saline solution.
Amphotericin B was dissolved in a 5% aqueous glucose solution.
The test compound (0.125 mg/kg), fluconazole (5 mg/kg) and amphotericin B (0.25 mg/kg) were subcutaneously administered 2 hours after infection and then once a day for 6 days a total of 7 times. The test was carried out for the case where the each of the agents was administered singly and in combination by administering each of the agents immediately after the test compound had been administered. Efficacy in the susceptibility test was evaluated by the survival rate 22 days after infection.

The mark [3] stands for this setting: Table 5, flucytosine 50 mg/kg orally.
Where [4] appears, read: Table 6, fluconazole 5 mg/kg s.c.
The mark [5] stands for this setting: Table 4, voriconazole 5 mg/kg s.c.
Setting [6] is: Table 7, amphotericin B 0.25 mg/kg s.c.

Turning to `Nc1[nH]c(=O)ncc1F` [5-FC, flucytosine], the “Survival rate (%)” value in assay [1] (setting [3]) was found to be 10%.

In the case of `OC(Cn1cncn1)(Cn1cncn1)c1ccc(F)cc1F` [FLCZ, fluconazole], the “Survival rate (%)” value in assay [2] (setting [4]) is given as 10%.

Take `C[C@@H](c1ncncc1F)[C@](O)(Cn1cncn1)c1ccc(F)cc1F` [VLCZ, voriconazole]: the “Survival rate (%)” value in assay [1] (setting [5]) was 10%.

For the compound `N=C(N)c1ccc(OCCCC2CCN(CCCOc3ccc(C(=N)N)cc3)CC2)cc1` [Test Compound], the “Survival rate (%)” value in assay [1] (setting [5]) turned out to be 10%; in assay [1] (setting [3]), 10%; in assay [2] (setting [4]) it was 20%; in assay [2] (setting [6]), 0%.

Regarding `C[C@@H]1[C@H](O)[C@@H](C)/C=C/C=C/C=C/C=C/C=C/C=C/C=C/[C@H](O[C@@H]2O[C@H](C)[C@@H](O)[C@H](N)[C@@H]2O)C[C@@H]2O[C@](O)(C[C@@H](O)C[C@@H](O)[C@H](O)CC[C@@H](O)C[C@@H](O)CC(=O)O[C@H]1C)C[C@H](O)[C@H]2C(=O)O` [AMPH-B, amphotericin B], in assay [2] (setting [6]), the “Survival rate (%)” value was found to be 20%.
